Patent US10051857B2, “Formulation component” (SYNGENTA LIMITED, priority 2011, dated 2018)

How the values were obtained:
Format in all cases: in vivo
[1] = system: four weed species (CHEAL, ABUTH, SETVI, XANST); assay: Glasshouse adjuvant test with fomesafen (Example 5), mean across species; details: fomesafen 60 or 120 g/ha, adjuvant 0.2% v/v or none
Protocol: Compound 1 (N, N-diethyl-3-methylbenzamide) was tested in a glasshouse against four weed species using the herbicide fomesafen. An agrochemical composition was prepared containing 0.2% v/v of the adjuvant in a track sprayer and was applied at a volume of 200 liters per hectare. Fomesafen was applied at either 60 or 120 grams of pesticide per hectare on each of the weed species. The weed species and their growth stage at spraying were Chenopodium album (CHEAL; growth stage 13/14), Abutilon theophrasti (ABUTH; growth stage 12), Setaria viridis (SETVI; growth stage 13), and Xanthium strumarium (XANST; growth stage 12).
Each spray test was replicated three times. The efficacy of the herbicide was assessed visually and expressed as a percentage of the leaf area killed. Samples were assessed at time periods of 7, 14 and 21 days following application. The results shown in Table 5 below are mean averages over the two rates of fomesafen, three replicates and the three assessment timings, and are compared to the efficacy of fomesafen in the absence of adjuvant.

[2] = system: four weed species (ABUTH, CHEAL, DIGSA, SETVI); assay: Glasshouse adjuvant test with nicosulfuron (Example 7), mean across species; details: nicosulfuron 30 or 60 g/ha, adjuvant 0.2% v/v or none
Protocol: (§1) Compound 1 was tested in a glasshouse against four weed species using the herbicide nicosulfuron. A 20% w/w stock emulsion of compound 1 was prepared additionally containing 2% w/w Gohsenol® GL03 and 2% w/w Pluronic® PE10500 as surfactants. Using this, an agrochemical composition was prepared containing 0.2% v/v of the adjuvant in a track sprayer and was applied at a volume of 200 liters per hectare. Nicosulfuron was applied at either 30 or 60 grams of pesticide per hectare on each of the weed species. The weed species and their growth stage at spraying were Abutilon theophrasti (ABUTH; growth stage 13), Chenopodium album (CHEAL; growth stage 14), Digitaria sanguinalis (DIGSA; growth stage 13), and Setaria viridis (SETVI; growth stage 13).
(§2) Each spray test replicated three times. The efficacy of the herbicide was assessed visually and expressed as a percentage of the leaf area killed. Samples were assessed at time periods of 14 and 21 days following application. The results shown in Table 7 below are mean averages over the two rates of nicosulfuron, three replicates and the two assessment timings, and are compared to the efficacy of nicosulfuron in the absence of an adjuvant.

Setaria viridis (SETVI) = assay: Glasshouse adjuvant test with nicosulfuron (Example 7); details: nicosulfuron 30 or 60 g/ha, adjuvant 0.2% v/v or none, 200 l/ha; growth stage 13; mean over two rates, three replicates, 14 and 21 days
Protocol: as §1, §2

[3] = system: Digitaria sanguinalis (DIGSA); assay: as above; details: nicosulfuron 30 or 60 g/ha, adjuvant 0.2% v/v or none, 200 l/ha; growth stage 13; mean over two rates, three replicates, 14 and 21 days
Protocol: as §1, §2

[4] = system: Abutilon theophrasti (ABUTH); assay: as above; details: nicosulfuron 30 or 60 g/ha, adjuvant 0.2% v/v or none, 200 l/ha; growth stage 13; mean over two rates, three replicates, 14 and 21 days
Protocol: as §1, §2

[5] = system: Chenopodium album (CHEAL); assay: as above; details: nicosulfuron 30 or 60 g/ha, adjuvant 0.2% v/v or none, 200 l/ha; growth stage 14; mean over two rates, three replicates, 14 and 21 days
Protocol: as §1, §2

[6] = system: four weed species (AMATE, BRADE, DIGSA, POLCO); assay: Glasshouse adjuvant test with mesotrione (Example 6), mean across species; details: mesotrione 45 or 90 g/ha, adjuvant 0.2% v/v or none
[7] = system: four weed species (ALOMY, AVEFA, LOLPE, SETVI); assay: Glasshouse adjuvant test with pinoxaden (Example 8), mean across species; details: pinoxaden 7.5 or 15 g/ha, adjuvant 0.2% v/v or none
Protocol: The adjuvant shown in example 1 was tested in a glasshouse against four weed species in combination with the herbicide pinoxaden. A 20% w/w stock emulsion of compound 1 was prepared additionally containing 2% w/w Gohsenol® GL03 and 2% w/w Pluronic® PE10500 as surfactants. Using this, an agrochemical composition was prepared containing 0.2% v/v of the adjuvant in a track sprayer and was applied at a volume of 200 liters per hectare. Pinoxaden was applied at either 7.5 or 15 grams of pesticide per hectare on each of the weed species. The weed species and their growth stage at spraying were Alopecurus myosuroides (ALOMY; growth stage 13), Avena fatua (AVEFA; growth stage 12); Lolium perenne (LOLPE; growth stage 13), Setaria viridis (SETVI; growth stage 14).
Each spray test was replicated three times. The efficacy of the herbicide was assessed visually and expressed as a percentage of the leaf area killed. Samples were assessed at time periods of 14 and 21 days following application. The results shown in Table 8 are mean averages over the two rates of pinoxaden, three replicates and the two assessment timings, and are compared to the efficacy of pinoxaden in the absence of adjuvant.

CCN(CC)C(=O)c1cccc(C)c1 [Compound 1, N, N-diethyl-3-methylbenzamide]
Mean percentage kill, Mean across species [1]: 42.6% | Mean percentage kill, Mean across species [2]: 81.3% | Mean percentage kill SETVI (Setaria viridis (SETVI)): 93.4% | Mean percentage kill DIGSA [3]: 89.4% | Mean percentage kill ABUTH [4]: 72.9% | Mean percentage kill CHEAL [5]: 63.8% | Mean percentage kill, Mean across species [6]: 54.1% | Mean percentage kill, Mean across species [7]: 22.1%
